According to patent US6566378B1, “Pesticidal compositions and pesticidal methods” (Sumitomo Chemical Company, Limited, priority 1999, dated 2003):

How the values were obtained:
Assay type in all cases: in vivo
[1] = test system: Aphis gossypii (cotton aphid); test: Test Example 3: test for controlling damage by Aphis gossypii on potted cucumber; settings: spray on potted cucumber, two days after treatment, index near zero shows high controlling effect
Experimental: (§1) Twenty parts of Compound (I) were dissolved in 70 parts of Solvesso 150 (mentioned above), and 6 parts of Toximul 3454F (mentioned above) and 4 parts of Toximul 3455F (mentioned above) were added thereto and mixed well to give an emulsifiable concentrate. An aqueous dilution of the emulsifiable concentrate and an aqueous dilution of a water-soluble formulation of Compound A (commercial name : Mospilan water-soluble formulation produced by Kumiai Chemical Industry) were mixed together to make a designated concentration, to which a spreading agent (New Rinou manufactured by Nihon Nohyaku) was added to make a volume of the spreading agent 1/5000.
(§2) About thirty Aphis gossypii (cotton aphid) in various growth stages were set free on potted cucumber (at the first leaf stage), and then the prepared application solution was sprayed over at a volume of 40ml per pot. The treated plants were air dried, covered for preventing escape of the tested aphids and invasion from the outside and set in a greenhouse (25° C.).
(§3) Corrected indices were calculated by the following equation based on prerecorded parasitic number of tested aphids on the tested plant before treatment and the parasitic number after two days from the treatment.
Corrected index=100×(T2DAT/Tpre)/(C2DAT/Cpre)
T2DAT: Number of the tested aphids on the plant after two days from the treatment […]

[2] = test system: Helicoverpa armigera (cotton bollworm); test: Test Example 1: test for controlling damage by Helicoverpa armigera on potted cabbage; settings: spray on potted cabbage, two fourth-instar larvae, damage after 6 days
Experimental: Twenty parts of Compound (I) were dissolved in 70 parts of Solvesso 150 (solvent manufactured by Exxon Chemical), and 6 parts of Toximul 3454F (surfactant manufactured by Stepan) and 4 parts of Toximul 3455F (surfactant manufactured by Stepan) were added thereto and mixed well to give an emulsifiable concentrate. An aqueous dilution of the emulsifiable concentrate and an aqueous dilution of a water-soluble formulation of Compound A (commercial name: Mospilan water-soluble formulation produced by Kumiai Chemical Industry) were mixed together to make a designated concentration, to which a spreading agent (New Rinou manufactured by Nihon Nohyaku) was added to make a volume of the spreading agent 1/3000. The prepared application solution was sprayed over potted cabbage (at the fourth to fifth leaf stage) at a volume of 40ml per pot. The treated plants were air dried, and then two fourth-instar larvae of Helicoverpa armigera (cotton bollworm) were set free. After 6 days, the damage (%) of the plant was observed. Each controlling ratio (%) was calculated by the following equation based on the damage (%) of non-treated plant.
(§4) Controlling ratio (%)=100×(Damage of non-treated plant−Damage of treated plant)/ Damage of non-treated plant

[3] = test system: Aphis gossypii (cotton aphid); test: Test Example 4: test for controlling damage by Aphis gossypii on potted cucumber; settings: spray on potted cucumber, two days after treatment
Experimental: as §1, with “an emulsifiable concentrate, obtained by mixing 10 parts” for “a water-soluble formulation”, “C, 40 parts of xylene, 40 parts of dimethylformamide and 10 parts of Solpol 3005X,” for “A (commercial name : Mospilan water-soluble formulation produced by Kumiai Chemical Industry)”
as §2, §3

[4] = test system: Helicoverpa armigera (cotton bollworm); test: Test Example 2: test for controlling damage by Helicoverpa armigera on potted cabbage; settings: spray on potted cabbage, five fourth-instar larvae, damage after 7 days
Experimental: An aqueous dilution of the emulsifiable concentrate and an aqueous dilution of an emulsifiable concentrate, obtained by mixing 10 parts of Compound B or Compound C, 40 parts of xylene, 40 parts of dimethylformamide and 10 parts of Solpol 3005X, were mixed together to make a designated concentration, to which a spreading agent (New Rinou manufactured by Nihon Nohyaku) was added to make a volume of the spreading agent 1/3000. The prepared application solution was sprayed over potted cabbage (at the fourth to fifth leaf stage) at a volume of 40ml per pot. The treated plants were air dried, and then five fourth-instar larvae of Helicoverpa armigera (cotton bollworm) were set free. After 7 days, the damage (%) of the plant was observed. Each controlling ratio (%) was calculated by the following equation based on the damage (%) of non-treated plant.
as §4

FC(F)(F)c1ccc(OCCCOc2c(Cl)cc(OCC=C(Cl)Cl)cc2Cl)nc1 [(I), 3,5-dichloro-1-(3,3-dichloro-2-propenyloxy)-4-[3-(5-trifluoromethylpyridin-2-yloxy)propoxy]benzene]
Corrected index ([1]; 0.5 ppm): 83
Controlling ratio (%) ([2]; 2.5 ppm): 25%
Controlling ratio (%) ([2]; 5.0 ppm): 50%
Corrected index ([3]; 0.5 ppm): 83
Controlling ratio (%) ([4]; 2.5 ppm): 20%
Controlling ratio (%) ([4]; 4 ppm): 40%

C/C(=N\C#N)N(C)Cc1ccc(Cl)nc1 [Compound A, (E)-N^1-[(6-chloro-3-pyridyl)methyl]-N^2-cyano-N^1-methylacetamidine, reference compound]
Corrected index ([1]; 0.125 ppm): 29
Controlling ratio (%) ([2]; 100 ppm): 0%

CN/C(=N\[N+](=O)[O-])NCC1CCOC1 (centres unmarked) [Compound B, 1-[(tetrahydro-3-furanyl)methyl]-2-nitro-3-methylguanidine, reference compound]
Controlling ratio (%) ([4]; 200 ppm): 40%

CN1COCN(Cc2cnc(Cl)s2)/C1=N/[N+](=O)[O-] [Compound C, 3-(2-chlorothiazol-5-ylmethyl)-5-methyl-4-nitroiminoperhydro-1,3,5-oxadiazine, reference compound]
Corrected index ([3]; 0.25 ppm): 44
Controlling ratio (%) ([4]; 100 ppm): 0%
